Assay results from patent US6426067B1, “Angiogenic inhibitory compounds” (Biomolecular Research Institute, Ltd., priority 1996, dated 2002).

Tested on: Chorioallantioic Membrane (CAM)
Assay type: in vivo
Conditions: 50 μg/cam; BRI2995: surviving eggs
Description: The in vivo CAM angiogenesis model, initially described by Folkman (1985) and modified by Maragoudakis et al (1988) was used. Briefly, fresh fertilized eggs were incubated for 4 days at 37° C. when a window was opened on the egg shell exposing the CAM. The window was covered with cellophane tape and the eggs were returned to the incubator until day 9 when the test compounds were applied. The test compounds were placed on sterile plastic discs (10 mm) and were allowed to dry under sterile conditions. Control discs (containing PBS) were placed on the CAM 1 cm away from the discs containing the test material. A sterile solution of cortisone acetate (100 ug/disc, Sigma) was incorporated in all discs in order to prevent an inflammatory response. The loaded and dried discs were inverted and placed on the CAM, the windows were covered and the eggs incubated until day 11 when angiogenesis was assessed.
For morphological evaluation, eggs were treated as above. At day 11 the eggs were flooded with 10% buffered formalin (Janssen Chimica, Geel, Belguim), the plastic discs were removed and the eggs were kept at room temperature for at least 4 hours. At large area around the disc was cut off and placed on a glass slide, and the vascular density index (expressed as number of blood vessels) was measured by the method of Harris-Hooker et al (1983).

CO[C@@H]1[C@H](OC(=O)NC(=O)CCl)CC[C@]2(CO2)[C@H]1[C@@]1(C)O[C@@H]1CC=C(C)C [TNP-470]
inhibition (reduction) of vascular density: 21%±16
